Test results taken from US11208400B2, “Substituted 6-(1H-pyrazol-1-yl)pyrimidin-4-amine derivatives and uses thereof” (Bayer Aktiengesellschaft, priority 2016, dated 2021).
Counter-ions that a name gives are not always drawn.

Each compound was assayed against T1, human Npt2a (Homo sapiens, UniProt Q06495) (assay: Npt2a activity cell based assay, membrane potential dye, CHO T-REx hNpt2a cells). Details: doxycycline-induced, depolarization by sodium phosphate influx, average or median values if tested more than once.
T1 construct: expressed in transfected cells
T1 sequence (Q06495 1-639): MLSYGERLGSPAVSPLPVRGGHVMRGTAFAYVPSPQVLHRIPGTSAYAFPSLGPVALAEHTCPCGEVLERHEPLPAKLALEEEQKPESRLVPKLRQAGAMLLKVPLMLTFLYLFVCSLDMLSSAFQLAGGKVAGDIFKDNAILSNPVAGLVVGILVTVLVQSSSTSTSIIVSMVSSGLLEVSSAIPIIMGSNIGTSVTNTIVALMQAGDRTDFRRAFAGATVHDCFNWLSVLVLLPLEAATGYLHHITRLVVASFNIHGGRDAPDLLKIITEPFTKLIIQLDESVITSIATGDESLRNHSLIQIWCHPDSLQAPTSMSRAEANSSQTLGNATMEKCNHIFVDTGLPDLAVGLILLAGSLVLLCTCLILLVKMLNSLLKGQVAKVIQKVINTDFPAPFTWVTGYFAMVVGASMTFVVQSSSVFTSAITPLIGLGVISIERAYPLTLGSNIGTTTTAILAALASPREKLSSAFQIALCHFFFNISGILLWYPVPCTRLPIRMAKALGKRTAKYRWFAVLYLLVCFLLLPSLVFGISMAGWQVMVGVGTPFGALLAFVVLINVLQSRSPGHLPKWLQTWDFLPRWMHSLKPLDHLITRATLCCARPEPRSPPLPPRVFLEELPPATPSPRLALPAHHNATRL
Procedure, shortened: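 Cells were doxycycline-induced CHO T-REx hNpt2a, dye-loaded and pretreated 5 min at RT with 1 nM–50 μM compound in Na-free pH 7.4 buffer. IC50 was fit to the post/pre-trigger fluorescence ratio.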

Compared with `Cc1nn(-c2cc(Nc3c(C)c(-c4ccc(F)cc4)nn3CC3CC3)ncn2)c(C)c1OC(F)F` [Example 509, N-[1-(cyclopropylmethyl)-3-(4-fluorophenyl)-4-methyl-1H-pyrazol-5-yl]-6-[4-(difluoromethoxy)-3,5-dimethyl-1H-pyrazol-1-yl]pyrimidin-4-amine], `CNC(=O)Oc1c(C)nn(-c2cc(Nc3c(C)c(-c4ccc(F)cc4)nn3CC3CC3)ncn2)c1C` [Example 519, 1-(6-{[1-(cyclopropylmethyl)-3-(4-fluorophenyl)-4-methyl-1H-pyrazol-5-yl]amino}pyrimidin-4-yl)-3,5-dimethyl-1H-pyrazol-4-yl methylcarbamate] is 23-fold higher in IC50: 10 nM for the first, 230 nM for the second. The first is the more potent here.

Compared with `Cc1nn(-c2cc(Nc3nn(C)c(-c4ccc(C#N)cc4)c3C)ncn2)c(C(F)F)c1Cl` [Example 235, 4-[3-({6-[4-chloro-5-(difluoromethyl)-3-methyl-1H-pyrazol-1-yl]pyrimidin-4-yl}amino)-1,4-dimethyl-1H-pyrazol-5-yl]benzonitrile], `Cc1nn(-c2cc(Nc3c(C)c(-c4ccc(F)cc4)nn3C)ncn2)c(C(F)F)c1Cl` [Example 139, 6-[4-chloro-5-(difluoromethyl)-3-methyl-1H-pyrazol-1-yl]-N-[3-(4-fluorophenyl)-1,4-dimethyl-1H-pyrazol-5-yl]pyrimidin-4-amine] is 43-fold higher in IC50: 3 nM for the first, 130 nM for the second.

`Cc1nn(-c2ccc(F)cc2)c(C)c1Nc1cc(-n2nc(C)c3ccccc32)ncn1` [Example 102, N-[1-(4-fluorophenyl)-3,5-dimethyl-1H-pyrazol-4-yl]-6-(3-methyl-1H-indazol-1-yl)pyrimidin-4-amine] and `Cc1nn(-c2cc(Nc3c(C)nn(-c4ccc(F)cc4)c3C)ncn2)c(C)c1Cl` [Example 63, 6-(4-chloro-3,5-dimethyl-1H-pyrazol-1-yl)-N-[1-(4-fluorophenyl)-3,5-dimethyl-1H-pyrazol-4-yl]pyrimidin-4-amine] are within 1.5-fold of each other in IC50: 7.3 nM for the first, 7.65 nM for the second.

First: Cc1cc(C)n(-c2cc(Nc3c(C)c(-c4ccc(F)cn4)nn3CC3CC3)ncn2)n1 [Example 421, N-[1-(cyclopropylmethyl)-3-(5-fluoropyridin-2-yl)-4-methyl-1H-pyrazol-5-yl]-6-(3,5-dimethyl-1H-pyrazol-1-yl)pyrimidin-4-amine]
Second: Cc1cc(C(F)F)n(-c2cc(Nc3c(C)c(-c4ccc(C(F)(F)F)nc4)nn3CC3CC3)ncn2)n1 [Example 532, N-{1-(cyclopropylmethyl)-4-methyl-3-[6-(trifluoromethyl)pyridin-3-yl]-1H-pyrazol-5-yl}-6-[5-(difluoromethyl)-3-methyl-1H-pyrazol-1-yl]pyrimidin-4-amine]
The IC50 of the first is 6.8-fold lower: 410 nM for the first, 2800 nM for the second.

First: CCc1c(Nc2cc(-n3nc(C)c(C(C)(C)O)c3C(F)F)ncn2)nn(C)c1-c1ccc(F)cc1 [Example 190, 2-[5-(difluoromethyl)-1-(6-{[4-ethyl-5-(4-fluorophenyl)-1-methyl-1H-pyrazol-3-yl]amino}pyrimidin-4-yl)-3-methyl-1H-pyrazol-4-yl]propan-2-ol]
Second: CCc1c(Nc2cc(-n3nc(C)c(C(=O)OC(C)(C)C)c3C(F)F)ncn2)nn(C)c1-c1ccc(F)cc1 [Example 166, tert-butyl 5-(difluoromethyl)-1-(6-{[4-ethyl-5-(4-fluorophenyl)-1-methyl-1H-pyrazol-3-yl]amino}pyrimidin-4-yl)-3-methyl-1H-pyrazole-4-carboxylate]
The IC50 of the first is 23-fold higher: 210 nM for the first, 9 nM for the second.

First: Cc1nn(-c2cc(Nc3[nH]nc(-c4ccc(F)cc4)c3C3CC3)ncn2)c(C)c1Cl [Example 8, 6-(4-chloro-3,5-dimethyl-1H-pyrazol-1-yl)-N-[4-cyclopropyl-3-(4-fluorophenyl)-1H-pyrazol-5-yl]pyrimidin-4-amine]
Second: CCc1c(-c2ccc(F)cc2)nn(C2CC2)c1Nc1cc(-n2nc(C)c(Cl)c2C)ncn1 [Example 120, 6-(4-chloro-3,5-dimethyl-1H-pyrazol-1-yl)-N-[1-cyclopropyl-4-ethyl-3-(4-fluorophenyl)-1H-pyrazol-5-yl]pyrimidin-4-amine]
The IC50 of the first is 38-fold lower: 38 nM for the first, 1450 nM for the second.

Going from `Cc1cc(C)n(-c2cc(Nc3c(Cl)c(-c4ccc(C#N)cc4)nn3CC3CC3)ncn2)n1` [Example 441, 4-[4-chloro-1-(cyclopropylmethyl)-5-{[6-(3,5-dimethyl-1H-pyrazol-1-yl)pyrimidin-4-yl]amino}-1H-pyrazol-3-yl]benzonitrile] to `Cc1nn(-c2cc(Nc3c(C)c(-c4ccc(C#N)cc4)nn3CC3CC3)ncn2)c(C)c1C(C)(C)O` [Example 165, 4-[1-(cyclopropylmethyl)-5-({6-[4-(2-hydroxypropan-2-yl)-3,5-dimethyl-1H-pyrazol-1-yl]pyrimidin-4-yl}amino)-4-methyl-1H-pyrazol-3-yl]benzonitrile], the IC50 falls from 21 nM to 3 nM (7-fold).

Going from `Cc1nn(-c2cc(Nc3c(C)c(-c4ccc(Cl)cc4)nn3CC3CC3)ncn2)c(C)c1C(C)(C)O` [Example 347, 2-[1-(6-{[3-(4-chlorophenyl)-1-(cyclopropylmethyl)-4-methyl-1H-pyrazol-5-yl]amino}pyrimidin-4-yl)-3,5-dimethyl-1H-pyrazol-4-yl]propan-2-ol] to `CCNc1c(C)nn(-c2cc(Nc3c(C)c(-c4ccc(F)cc4)nn3CC3CC3)ncn2)c1C` [Example 501, N-[1-(cyclopropylmethyl)-3-(4-fluorophenyl)-4-methyl-1H-pyrazol-5-yl]-6-[4-(ethylamino)-3,5-dimethyl-1H-pyrazol-1-yl]pyrimidin-4-amine trifluoroacetate], the IC50 falls from 23 nM to 5 nM (4.6-fold). The second is the more potent here.

First: CCc1c(Nc2cc(-n3nc(C)c(C(=O)N4CC(F)(C(F)(F)F)C4)c3C)ncn2)nn(C)c1-c1ccc(F)cc1 [Example 85, [1-(6-{[4-ethyl-5-(4-fluorophenyl)-1-methyl-1H-pyrazol-3-yl]amino}pyrimidin-4-yl)-3,5-dimethyl-1H-pyrazol-4-yl][3-fluoro-3-(trifluoromethyl)azetidin-1-yl]methanone]
Second: CCc1c(Nc2cc(-n3nc(C)c(CC(C)(C)O)c3C)ncn2)nn(C)c1-c1ccc(F)cc1 [Example 238, 1-[1-(6-{[4-ethyl-5-(4-fluorophenyl)-1-methyl-1H-pyrazol-3-yl]amino}pyrimidin-4-yl)-3,5-dimethyl-1H-pyrazol-4-yl]-2-methylpropan-2-ol]
The IC50 of the first is 1.6-fold higher: 130 nM for the first, 83 nM for the second.

First: CCc1c(Nc2cc(-n3nc(C)c(C(C)(C)O)c3C)ncn2)nn(CC2CC2)c1-c1ccc(F)cc1 [Example 188, 2-[1-(6-{[1-(cyclopropylmethyl)-4-ethyl-5-(4-fluorophenyl)-1H-pyrazol-3-yl]amino}pyrimidin-4-yl)-3,5-dimethyl-1H-pyrazol-4-yl]propan-2-ol]
Second: CCOC(=O)c1c(C)nn(-c2cc(Nc3nn(CC4CC4)c(-c4ccc(F)cc4)c3C)ncn2)c1C [Example 151, ethyl 1-(6-{[1-(cyclopropylmethyl)-5-(4-fluorophenyl)-4-methyl-1H-pyrazol-3-yl]amino}pyrimidin-4-yl)-3,5-dimethyl-1H-pyrazole-4-carboxylate]
The IC50 of the first is 1.8-fold higher: 710 nM for the first, 390 nM for the second. The second is the more potent here.

Going from `Cc1nn(-c2cc(Nc3c(C)c(-c4ccc(F)cc4)nn3CC3CC3)ncn2)c(C)c1CN1CC(F)C1` [Example 452, N-[1-(cyclopropylmethyl)-3-(4-fluorophenyl)-4-methyl-1H-pyrazol-5-yl]-6-{4-[(3-fluoroazetidin-1-yl)methyl]-3,5-dimethyl-1H-pyrazol-1-yl}pyrimidin-4-amine] to `Cc1nn(-c2cc(Nc3nn(C)c(-c4ccc(F)cc4)c3OC(F)F)ncn2)c(C)c1Cl` [Example 413, 6-(4-chloro-3,5-dimethyl-1H-pyrazol-1-yl)-N-[4-(difluoromethoxy)-5-(4-fluorophenyl)-1-methyl-1H-pyrazol-3-yl]pyrimidin-4-amine], the IC50 falls from 16 nM to 4 nM (4-fold). The second is the more potent here.

`CCc1c(-c2ccc(F)cc2)n[nH]c1Nc1cc(-n2nc(C)cc2C(F)F)ncn1` [Example 2, 6-[5-(difluoromethyl)-3-methyl-1H-pyrazol-1-yl]-N-[4-ethyl-3-(4-fluorophenyl)-1H-pyrazol-5-yl]pyrimidin-4-amine] and `CCc1c(Nc2cc(-n3nc(C)c4ccncc43)ncn2)nn(C)c1-c1ccc(F)cc1` [Example 168, N-[4-ethyl-5-(4-fluorophenyl)-1-methyl-1H-pyrazol-3-yl]-6-(3-methyl-1H-pyrazolo[3,4-c]pyridin-1-yl)pyrimidin-4-amine] are within 1.5-fold of each other in IC50: 12 nM for the first, 15 nM for the second.

Going from `COc1c(-c2ccc(C#N)cc2)nn(C)c1Nc1cc(-n2nc(C)c(CC(C)(C)O)c2C)ncn1` [Example 428, 4-[5-({6-[4-(2-hydroxy-2-methylpropyl)-3,5-dimethyl-1H-pyrazol-1-yl]pyrimidin-4-yl}amino)-4-methoxy-1-methyl-1H-pyrazol-3-yl]benzonitrile] to `Cc1nn(-c2cc(Nc3c(C)nn(-c4ccc(C#N)cc4)c3C)ncn2)c(C)c1CC(C)(C)O` [Example 301, 4-[4-({6-[4-(2-hydroxy-2-methylpropyl)-3,5-dimethyl-1H-pyrazol-1-yl]pyrimidin-4-yl}amino)-3,5-dimethyl-1H-pyrazol-1-yl]benzonitrile], the IC50 falls from 550 nM to 92 nM (6-fold). The second is the more potent here.

`Cc1nn(-c2cc(Nc3nn(C)c(-c4ccc(F)cc4)c3OC(F)F)ncn2)c(C)c1C#N` [Example 471, 1-(6-{[4-(difluoromethoxy)-5-(4-fluorophenyl)-1-methyl-1H-pyrazol-3-yl]amino}pyrimidin-4-yl)-3,5-dimethyl-1H-pyrazole-4-carbonitrile] gave an IC50 of 7 nM.
